Entries after “also recorded” stand apart in the source; their conditions may differ.
Key:
[1] = tested on: A549 NRF2-ARE-Fluc stable cell line; test: A549 Nrf2 assay: NRF2-ARE firefly luciferase reporter gene assay; type: cell-based; conditions: Homo sapiens, read-out: Potency of inhibition, A549
Procedure, shortened: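 A549 cells (Keap1 loss-of-function, constitutive NRF2) stably carrying ARE-driven firefly luciferase; compound treatment 18–24 h at 37 °C, 0.46% DMSO final.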

[2] = tested on: H1437 NRF2-ARE-Fluc stable cell line; test: H1437 Nrf2 assay: NRF2-ARE firefly luciferase reporter gene assay; type: cell-based; conditions: Homo sapiens, NCI-H1437, H1437 NRF2-ARE-Fluc stable cell line; read-out: Potency of inhibition, H1437
[3] = In vivo pharmacokinetic plasma profile; conditions: CD-1 mice; for Compound retained in the blood until / Time by which most of the compound is cleared from the blood: IP 30 mg/kg, IV 3 mg/kg, plasma
Procedure: For the in vivo pharmacokinetic studies, single intraperitoneal (IP; 30 mg/kg) and intravenous (IV; 3 mg/kg) injection was carried out using CD-1 mice. (n=3 per group/time point). Compounds in the plasma were quantified using Mass Spectrometry.

[4] = tested on: pancreatic cancer cells (Panc1); test: Clonogenic assay in Panc1 pancreatic cancer cells; type: cell-based; conditions: for Growth of Panc1 cells, combination with gemcitabine: gemcitabine (10 nM in figure legends)
Procedure: (§1) (A-B) Panc1 and MiaPaCa cells were treated gemcitabine (10 nM) singly or in combination with compound 1 for 72 h. At the end of treatment, regular growth media was added and cells were further incubated for 8-10 days and stained with crystal violet;
(§2) For the clonogenic assays, 1,000 cells/well were plated in a 6-well plate. The next day, the cells were treated with vehicle (DMSO), Nrf2 inhibitor, a chemotherapeutic drug, or a combination of Nrf2 and chemotherapeutic drugs for 48 hrs. The drug containing media was then replaced with regular growth media and the cells were incubated for an additional 10 days. At the end of incubation period, the colonies were stained with Crystal Violet and imaged.

[5] = tested on: mRNA expression of Nrf2 and its downstream target genes, GCLm and NQO1, A549 cells; test: Real time RT-PCR of Nrf2 and downstream target genes in A549 cells; type: cell-based; conditions: for NRF2 signaling, fold change in mRNA by real time RT-PCR / Nrf2 (and GCLm, NQO1) expression, real time PCR based validation: A549 cells; for NRF2 signaling, fold change in mRNA by real time RT-PCR: 48 h (compounds 1, 3), 72 h (compound 4)
Procedure: […] The mRNA expression of Nrf2 and its downstream target genes, GCLm and NQO1 was measured by RT-PCR. (NC means no significant change in gene expression in comparison with vehicle group; M represents the concentration of drug used in the gene expression studies and it is twice the IC50 values generated from primary screening with A549-ARE reporter cell lines).

A549 lung cancer cells = test: Clonogenic assay in A549 lung cancer cells; type: cell-based; conditions: combination with chemotherapeutic drug
Procedure: For the clonogenic assay, exponentially growing cells were counted, diluted, and seeded in triplicate at 1,000 cells/well in a 6-well plate. Cells were incubated for 24 h in a humidified CO2 incubator at 37° C., and exposed to drugs or vehicle for 48 h. The chemotherapeutic drugs, etoposide, cisplatin, or carboplatin were added to some of the samples to see the effect of the drug in the presence and absence of the small inhibitors of Nrf2. After the treatment period, the drug containing media was replaced with complete growth media. To assess clonogenic survival following the drug treatment, A549 cells from a type of non-small cell lung cancer cell line were incubated in complete growth medium at 37° C. for 10-14 days and then stained with 50% methanol-crystal violet solution. Only colonies with more than 50 cells were counted (final concentration of DMSO in the growth media was 0.1%).
as §2

[6] = tested on: pancreatic cancer cells (MiaPaCa); test: Clonogenic assay in MiaPaCa pancreatic cancer cells; type: cell-based; conditions: for Growth of MiaPaCa cells, combination with gemcitabine: gemcitabine (10 nM in figure legends)
Procedure: as §1, §2

IC50 [1]	IC50 [2]	Compound retained in the blood until [3]	Time by which most of the compound is cleared from the blood [3]	SMILES	Retention time in the blood, comparison of compounds 3, 4 and 1 [3]	Growth of Panc1 cells, single agent [4]	Growth of Panc1 cells, combination with gemcitabine [4]	NRF2 signaling, fold change in mRNA by real time RT-PCR [5]	Nrf2, GCLm, and NQO1 gene expression, real time PCR based validation assay ([5]; cell line not given)	Cytotoxicity of chemotherapeutic drugs in combination with the compound, clonogenic assay (A549 lung cancer cells)	Growth of MiaPaCa cells, single agent [6]	Growth of MiaPaCa cells, combination with gemcitabine [6]	NQO1 and GCLm expression, real time PCR ([5]; A549 and H1437 cells)	Nrf2 (and GCLm, NQO1) expression, real time PCR based validation [5]	NRF2 and its target genes, time course ([5]; 5 μM)
5 to 25 µM	< 5 µM	about 24 hr	–	O=C(Nc1ncc(Cc2ccc(C(F)(F)F)cc2)s1)c1ccc(-c2cccc([N+](=O)[O-])c2)o1 [Compound 1]	retained in the blood for the longest time	suppressed the growth of two different pancreatic cell lines	enhance the cytotoxicity of gemcitabine; also recorded: potentiates the cytotoxicity of standard care chemotherapy drugs (gemcitabine)	inhibit NRF2 signaling	decrease in Nrf2, GCLm, and NQO1 gene expression	more effective in combination with a chemotherapeutic drug	suppressed the growth of two different pancreatic cell lines	enhance the cytotoxicity of gemcitabine; also recorded: potentiates the cytotoxicity of standard care chemotherapy drugs (gemcitabine)	–	–	–
< 5 µM	< 5 µM	–	about 8 hrs	CC1(C)CC2CC(C)(CN2S(=O)(=O)c2ccc(C(=O)Nc3ccc(Cl)c(S(=O)(=O)N4CCOCC4)c3)cc2)C1 (centres unmarked) [compound 3]	cleared the fastest	suppressed the growth of two different pancreatic cell lines; also recorded: significant growth inhibitory effect as a single agent	enhance the cytotoxicity of gemcitabine	inhibit NRF2 signaling	–	enhance the cytotoxicity of standard care chemotherapeutic drugs	suppressed the growth of two different pancreatic cell lines; also recorded: significant growth inhibitory effect as a single agent	enhance the cytotoxicity of gemcitabine	Inhibition of NQO1 expression as well as some inhibition of GCLm expression	inhibit Nrf2 expression	–
< 5 µM	< 5 µM	about 12 hr	≤ 24 h	Cc1ccccc1C(=O)N1CCc2cc(-c3nc(NC(=O)Cc4ccc5c(c4)OCO5)sc3C)ccc21 [compound 4]	–	suppressed the growth of two different pancreatic cell lines; also recorded: significant growth inhibitory activity as single agent	enhance the cytotoxicity of gemcitabine; also recorded: potentiates the cytotoxicity of standard care chemotherapy drugs (gemcitabine)	inhibits NRF2 signaling	–	more effective in combination with a chemotherapeutic drug; also recorded: potentiates the toxicity of standard care chemotherapy drugs	suppressed the growth of two different pancreatic cell lines; also recorded: significant growth inhibitory activity as single agent	enhance the cytotoxicity of gemcitabine; also recorded: potentiates the cytotoxicity of standard care chemotherapy drugs (gemcitabine)	–	significant reduction in Nrf2, GCLm, and NQO1 expression	Time dependent reduction in NRF2 and its target genes

— patent publication US20160046616A1, “NRF2 SMALL MOLECULE INHIBITORS FOR CANCER THERAPY” (THE JOHNS HOPKINS UNIVERSITY, priority 2013, published 2016)
